Laboratory results as given in article PMC3056882 (Steroids, 2011).
Where two headings read alike, the source gives them in different places.

Tests used:
AKR1D1 [1] = biological target: T1, AKR1D1 (Homo sapiens, UniProt P51857); settings: cited from earlier work
T1 sequence (P51857 1-326): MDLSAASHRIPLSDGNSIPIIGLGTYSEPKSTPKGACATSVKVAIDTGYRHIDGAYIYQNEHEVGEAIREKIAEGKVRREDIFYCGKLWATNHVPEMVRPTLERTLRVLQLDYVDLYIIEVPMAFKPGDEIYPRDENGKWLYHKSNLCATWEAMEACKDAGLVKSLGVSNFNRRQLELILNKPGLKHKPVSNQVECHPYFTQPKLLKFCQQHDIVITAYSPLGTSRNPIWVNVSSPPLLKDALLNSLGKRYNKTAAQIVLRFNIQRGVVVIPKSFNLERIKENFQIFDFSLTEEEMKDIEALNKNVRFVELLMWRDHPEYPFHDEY

AKR1D1 [2] = biological target: T1, AKR1D1; experiment: Inhibition of [4-14C]-testosterone reduction, radiometric assay; format: biochemical; settings: for ability to inhibit the AKR1D1 dependent reduction of testosterone: result in words; for mode of inhibition of AKR1D1: C, competitive inhibition, NC, non-competitive inhibition
AKR1C3 = settings: read-out: Ki AKR1C3; competitive (C); ref Bauman et al., 2005 [28]; cited from earlier work
AKR1C1 = settings: read-out: Ki AKR1C1; competitive (C); ref Bauman et al., 2005 [28]; cited from earlier work
AKR1C2 = settings: read-out: Ki AKR1C2; competitive (C); ref Bauman et al., 2005 [28]; cited from earlier work
AKR1D1 [3] = biological target: T1, AKR1D1; format: biochemical; settings: for Km / kcat: fluorimetric, pH 6.0, 15 μM NADPH, 37 °C
aldose reductase AKR1B1 = settings: read-out: Kd of NADPH for aldose reductase AKR1B1; cited from earlier work
AKR1D1 [4] = biological target: T1, AKR1D1; experiment: Dissociation constant of AKR1D1-NADPH binary complex by fluorescence titration; format: binding
[5] = substrate: C[C@]12CCC(=O)C=C1CC[C@@H]1[C@@H]2[C@@H](O)C[C@]2(C=O)[C@@H](C(=O)CO)CC[C@@H]12; format: biochemical, human; settings: other: fluorimetric, pH 6.0, 15 μM NADPH, 37 °C
[6] = substrate: C[C@]12CCC(=O)C=C1CC[C@@H]1[C@@H]2[C@@H](O)C[C@@]2(C)[C@H]1CC[C@]2(O)C(=O)CO; format: biochemical, human; settings: other: fluorimetric, pH 6.0, 15 μM NADPH, 37 °C
[7] = substrate: C[C@]12CC[C@H]3[C@@H](CCC4=CC(=O)CC[C@@]43C)[C@@H]1CC[C@H]2O; format: biochemical, human; settings: other: fluorimetric, pH 6.0, 15 μM NADPH, 37 °C
[8] = read-out: Ki (substrate inhibition), dissociation constant for substrate from the E-NADP(H) complex, N.D. = not detected
[9] = dissociation constant for substrate from the E-NADP(H) complex, N.D. = not detected
[10] = ref Di Costanzo et al., 2008 [13]

For `C[C@]12CC[C@H]3[C@@H](CCC4=CC(=O)C=C[C@@]43C)[C@@H]1CC[C@@H]2O` [1,4-Androstadien-17β-ol-3-one], the Km (AKR1D1 [1]; ref Drury et al., 2009 [14]) is given as 3.2 ± 0.2 µM and the kcat (AKR1D1 [1]; ref Drury et al., 2009 [14]) is given as 0.035 ± 0.0017 s⁻¹.

In the case of `O=C(O)c1ccc(C(=O)c2ccccc2)cc1` [4-Benzoylbenzoic acid], the Ki (AKR1D1 [2]) is given as over 100 µM, the “ability to inhibit the AKR1D1 dependent reduction of testosterone” value (AKR1D1 [2]) is given as “ineffective” and the Ki (AKR1C3) is given as 1.9 µM. For the same molecule, the Ki (AKR1C1) was 12.5 µM and the Ki (AKR1C2) was 13.3 µM.

Work on `CC(C)CCC[C@@H](C)[C@H]1CC[C@H]2[C@@H]3[C@H](O)CC4=CC(=O)CC[C@]4(C)[C@H]3CC[C@]12C` [4-Cholesten-7α-ol-3-one] yielded a Km (AKR1D1 [3]) of 0.8 ± 0.2 µM and a kcat (AKR1D1 [3]) of 0.0333 ± 0.0017 s⁻¹.

In the case of `C[C@]12CC[C@H]3[C@@H](CCC4=CC(=O)CC[C@@H]43)[C@@H]1CC[C@@H]2O` [4-Estren-17β-ol-3-one], the Km (AKR1D1 [3]) is reported as 3 ± 0.5 µM, the kcat (AKR1D1 [3]) is reported as 0.045 ± 0.0033 s⁻¹ and the Ki (AKR1D1 [3]; [8]) is reported as 18.6 ± 3.4 µM.

Molecule `C[C@]12CC[C@H]3[C@@H](CCC4=CC(=O)CC[C@@]43C)[C@@H]1CC[C@@H]2C(=O)CO` [11-deoxycorticosterone] has a Ki (AKR1D1 [3]) of under 2 µM, a Km (AKR1D1 [3]) of under 0.2 µM and a kcat (AKR1D1 [3]) of over 0.067 s⁻¹.

Molecule `C[C@]12CCC(=O)C=C1CC[C@@H]1[C@@H]2[C@@H](O)C[C@]2(C=O)[C@@H](C(=O)CO)CC[C@@H]12` [Aldosterone] has a Ki (AKR1D1 [3]) of 66.5 ± 15.7 µM.

In the case of `C[C@H](CCC(=O)O)[C@H]1CC[C@H]2[C@@H]3[C@H](O)C[C@@H]4C[C@H](O)CC[C@]4(C)[C@H]3CC[C@]12C` [Chenodeoxycholic acid], the Ki (AKR1D1 [2]) is listed as 3.2 µM, the “mode of inhibition of AKR1D1” value (AKR1D1 [2]) is listed as “non-competitive” and the Ki (AKR1C3) is listed as 10 µM. The Ki (AKR1C1) was 8.3 µM and the Ki (AKR1C2) was 0.017 µM.

Work on `CC(C)CCC[C@@H](C)[C@H]1CC[C@H]2[C@@H]3CCC4=CC(=O)CC[C@]4(C)[C@H]3CC[C@]12C` [Cholestenone] yielded a Km (AKR1D1 [3]) of 0.3 ± 0.1 µM and a kcat (AKR1D1 [3]) of 0.01 ± 0.00067 s⁻¹.

With `C[C@]12C[C@H](O)[C@H]3[C@@H](CCC4=CC(=O)CC[C@@]43C)[C@@H]1CC[C@@H]2C(=O)CO` [Corticosterone] the “Ki (substrate inhibition)” value (AKR1D1 [3]; [9]) was “do not exhibit substrate inhibition”, the Km (AKR1D1 [3]) was 2.2 ± 0.5 µM and the kcat (AKR1D1 [3]) was 0.0317 ± 0.0017 s⁻¹.

In the case of `C[C@]12CCC(=O)C=C1CC[C@@H]1[C@@H]2[C@@H](O)C[C@@]2(C)[C@H]1CC[C@]2(O)C(=O)CO` [Cortisol], the “Ki (substrate inhibition)” value (AKR1D1 [3]; [9]) is reported as “do not exhibit substrate inhibition”.

In the case of `C[C@]12CCC(=O)C=C1CC[C@@H]1[C@@H]2C(=O)C[C@@]2(C)[C@H]1CC[C@]2(O)C(=O)CO` [Cortisone], the Km (AKR1D1 [3]) is reported as 15.1 ± 0.3 µM and the kcat (AKR1D1 [3]) is reported as 0.195 ± 0.0017 s⁻¹.

For `C[C@]12CC[C@H]3[C@@H](CCC4=CC(=O)CC[C@@]43C)[C@@H]1CC[C@H]2O` [Epitestosterone], the Ki (AKR1D1 [3]) was 10 ± 2.2 µM.

With `COc1ccc2c(c1)c(CC(=O)O)c(C)n2C(=O)c1ccc(Cl)cc1` [Indomethacin] the Ki (AKR1D1 [2]) was over 100 µM and the “ability to inhibit the AKR1D1 dependent reduction of testosterone” value (AKR1D1 [2]) was “ineffective”.

In the case of `Cc1cccc(Nc2ccccc2C(=O)O)c1C` [Mefenamic acid], the Ki (AKR1D1 [2]) is listed as over 100 µM, the “ability to inhibit the AKR1D1 dependent reduction of testosterone” value (AKR1D1 [2]) is listed as “ineffective” and the Ki (AKR1C1) is listed as 0.8 µM.

In the case of `C[C@]12CC[C@H]3[C@@H](CCC4=CC(=O)CC[C@@]43C)[C@@H]1CC[C@@H]2O` [Testosterone], the Ki (AKR1D1 [1]; read-out: Ki (substrate inhibition), ref Di Costanzo et al., 2008 [13]) is given as 14.5 ± 5.8 µM, the Km (AKR1D1 [1]; [10]) is given as 2.7 ± 1.2 µM and the kcat (AKR1D1 [1]; [10]) is given as 0.14 ± 0.0333 s⁻¹.

For `C[C@H](CCC(=O)O)[C@H]1CC[C@H]2[C@@H]3[C@@H](O)C[C@@H]4C[C@H](O)CC[C@]4(C)[C@H]3CC[C@]12C` [Ursodeoxycholic acid], the Ki (AKR1D1 [2]) is listed as 9.8 µM, the “mode of inhibition of AKR1D1” value (AKR1D1 [2]) is listed as “non-competitive” and the Ki (AKR1C3) is listed as 1.3 µM. The Ki (AKR1C1) was 4.9 µM and the Ki (AKR1C2) was 0.011 µM.

For `CC(=O)[C@H]1CC[C@H]2[C@@H]3CCC4=CC(=O)CC[C@]4(C)[C@H]3CC[C@]12C` [progesterone], the Ki (AKR1D1 [3]) was under 2 µM, the Km (AKR1D1 [3]) was under 0.2 µM and the kcat (AKR1D1 [3]) was over 0.067 s⁻¹.

Work on `C[C@]12CCC(=O)C=C1CC[C@@H]1[C@@H]2CC[C@]2(C)C(=O)CC[C@@H]12` [Δ^4-Androstene-3,17-dione] yielded a Km (AKR1D1 [3]) of 0.9 ± 0.2 µM, a kcat (AKR1D1 [3]) of 0.1 ± 0.013 s⁻¹ and a Ki (AKR1D1 [3]; [8]) of 4.3 ± 1.3 µM.

For NADPH, the Kd (aldose reductase AKR1B1) is given as 0.009 µM, the “Kd fold higher than AKR1B1” value (AKR1D1 [4]; AKR1D1 vs AKR1B1 (human aldose reductase)) is given as 5 fold and the Kd (AKR1D1 [4]; read-out: dissociation constant (Kd) of NADPH for wild-type AKR1D1, fluorescence titration, 10 mM potassium phosphate pH 6.0, 37 °C) is given as 0.043 ± 0.016 µM.

B1: AKR1D1 (Homo sapiens) (protein)
chain: T1 sequence (P51857 1-326)
In the case of B1, the Km [5] is reported as 2.5 ± 0.4 µM, the kcat [5] is reported as 0.15 ± 0.01 s⁻¹ and the kcat/Km [5] is reported as 61300 M⁻¹ s⁻¹. For the same molecule, the Km [6] was 13.1 ± 1.8 µM, the kcat [6] was 0.045 ± 0.00167 s⁻¹ and the kcat/Km [6] was 3500 M⁻¹ s⁻¹. The Km [7] was 2.9 ± 0.6 µM, the kcat [7] was 0.1 ± 0.0117 s⁻¹ and the kcat/Km [7] was 34800 M⁻¹ s⁻¹.
